According to patent publication EP0982399B1, “Thyroid hormone transporters, agonists and antagonists thereof” (Stichting tot bevordering van de wetenschap der …, priority 1998, dated 2000):
Where a name gives a salt, the structure may show the parent alone.

Key:
[1] = in vitro; conditions: for uptake ratio at 1 h: oatp1, choline
Method: (§1) For capping, the m7G[5']ppp[5']G cap analog was used (Epicentre Technologies). cRNA was stored in water at -80 C at a concentration of 0.1 mg/ml.
(§2) Oocytes were prepared as described previously (9). After isolation, the oocytes were sorted on morphological criteria and defolliculated manually. […] The next day, oocytes were injected with 23 nl water containing 23 ng mRNA, 2.3 ng Ntcp cRNA or 2.3 ng oatp1 cRNA using the Nanoject system (Drummond Scientific, Broomall, PA). Injected and uninjected oocytes were maintained for 2-3 days at 18 C in modified Barth's solution.
(§3) Uptake assays were performed as described previously (9). […] After 1 h, incubation buffer was removed and the oocytes were washed four times with 2.5 ml ice-cold Na^+-containing incubation buffer supplemented with 0.1% BSA. Oocytes were transferred to new tubes and counted individually.

[2] = system: Na^+-independent organic anion transporting polypeptide (oatp1); test: Uptake of [125I]iodothyronine derivatives by Xenopus laevis oocytes injected with oatp1 cRNA; conditions: oatp1 cRNA-injected oocytes; 1-2 nM ligand; Na^+ medium
Method: as §1, §2, §3

| SMILES | uptake ratio at 1 h, 100 µM ([1]; xenopus oocytes, ntcp crna) | uptake ratio at 1 h ([1]; xenopus oocytes) | uptake ratio at 1 h, 100 µM ([1]; xenopus oocytes, oatp1 crna) | uptake higher than that of the other sulfates [2] [%] | uptake ratio at 1 h, 100 µM [1] |
| --- | --- | --- | --- | --- | --- |
| N[C@@H](Cc1cc(I)c(Oc2cc(I)c(O)c(I)c2)c(I)c1)C(=O)O [T4, 3,3',5,5'-tetraiodothyronine] | 1.9 | 3.8 | 2.8 | – | – |
| NC(Cc1cc(I)c(Oc2ccc(OS(=O)(=O)O)c(I)c2)c(I)c1)C(=O)O (stereo not shown) [T3S, T3 sulfate] | – | – | – | ~50 | – |
| N[C@@H](Cc1ccc(Oc2cc(I)c(O)c(I)c2)c(I)c1)C(=O)O [rT3, 3,3',5'-triiodothyronine] | – | 8.5 | 6 | – | 1.8 |
| N[C@@H](Cc1ccc(Oc2ccc(O)c(I)c2)c(I)c1)C(=O)O [3,3'-T2, 3,3'-diiodothyronine] | – | 1.8 | 1.4 | – | 1.3 |
